Results as given in patent US20230190657A1, “METHODS AND COMPOSITIONS FOR TREATING A FIBROTIC DISEASE” (TRUSTEES OF BOSTON UNIVERSITY, priority 2020, published 2023).
“Also recorded” adds a separate entry of the source.

Tests used:
[1] = system: collagen I expression in human fibroblast-like synoviocytes (HFLS); experiment: Collagen I expression in HFLS treated with relaxin-2 microparticles in transwells; assay type: cell-based
Text: Human fibroblast-like synoviocytes (HFLS) treated with relaxin-2 microparticles in transwells allow for evaluation of the release and efficacy of released relaxin-2 at various time points. […] In the presence of relaxin-2, collagen I is expressed at 20 to 30 % of the basal level at weeks 1, 3, and 4.

[2] = Circular dichroism spectroscopy of relaxin-2 fold and stability; assay type: physicochemical
Procedure: Relaxin-2 loaded PLGA microparticles (RMPs) were prepared based on the water/oil/water (w/o/w) method as described by Igartua, M., et. al., International Journal of Pharmaceutics, 1998, 169(1): 45-54 at 1.27 x 10-3 wt % loaded relaxin as determined by ELISA analysis. Significant optimization and tailoring of the method was required to obtain the particle. Amounts, time, temperature, mixing speed, polymer LA:GA content were all varied to identify a unique non-obvious set of conditions to prepare the polymer. […] Relaxin-2 in the relaxin-2 microparticles maintained its native secondary and tertiary structure through the w/o/w double-emulsion process. […] Additionally, relaxin-2 was stable at 37° C. over 2 months (FIG. 2, right). The relaxin-2 PLGA microparticles were prepared with batch-to-batch consistency and were resuspended in PEG-600 to reduce aggregation and flocculation, as well as to ease administration through a 23G needle.
Two amphiphilic hydrogels were synthesized for the physical entrapment of relaxin-2 in order to control its sustained release (FIG. 6). These amphiphilic molecules melted at 95 °C and congealed when slowly cooled back to room temperature strictly from non-covalent interactions. The alkyl chain of 1 and alkyl fluoride chain of 2 allow for hydrophobic interactions between each molecule, while the […] and thymidine moieties allow for pi-pi stacking. Lastly, the deoxyribose and glucose groups facilitate hydrogen bonding (Godeau, G., et al., Tetrahedron Letters 2010, 51: 1012-1015; Ramen, F.A. et al., Biomaterials. 2017, 145: 72-80). Together, these amphiphilic molecules create unique and stable supramolecular assemblies that are stable at 37 °C for at least two weeks. This stability feature is another novel finding and benefit to the use of the hydrogels. Three gels of each 1 and 2 were created with bovine serum albumin and relaxin-2 at different densities by dissolving each molecule in a solution of phosphate buffered saline with protein and heating to 95 °C for 30 minutes. […] After cooling down to room temperature, relaxin-2-loaded gels were fully congealed (FIG. 7, right).

[3] = system: shoulder joint (arthrofibrosis); experiment: Histological analysis of the shoulder joint in rat shoulder contracture model; assay type: in vivo; settings: immobilized shoulders of rats; mIA of relaxin-2 or relaxin loaded microparticles
[4] = system: cultured renal fibroblasts, epithelial cells and mesangial cells; settings: cited from earlier work
[5] = system: stiff shoulder (shoulder contracture), glenohumeral joint; experiment: Range of motion in rat shoulder contracture model; assay type: in vivo, rats
Procedure: The study was approved by the Institutional Animal Care and Use Committee, and 10 Sprague-Dawley rats (250-300 g, Charles River Laboratories, Wilmington, MA, USA) were used in the study. For each animal, torque was measured per degree, on the intact left shoulder as a function of rotation angle between 80° of internal rotation (negative values by convention) and 60° of external rotation (positive values by convention) prior to any surgical intervention (baseline). […] Therefore, torque values at 60° external rotation (rOUT) and 80° of internal rotation (τINT) were recorded for each animal.
The left forelimb of each animal was immobilized using extraarticular internal fixation. Under isoflurane anesthesia, a longitudinal skin incision was made perpendicular to the scapular spine. Two No. 2-0 braided polyester sutures (Ethibond Excel, Ethicon - San Lorenzo, PR, USA) were passed between the medial border of the scapula and the humeral shaft and tightened to immobilize the shoulder joint (FIG. 1, panel A). Muscular structures were not manipulated during surgery, and the animals were allowed normal activity in their cages immediately after the procedure.
After 8 weeks of immobilization, the restraining sutures were removed, and the 10 animals were divided into two groups to evaluate changes in ROM (ROM group, n = 5) and joint stiffness (stiffness group, n = 5). In the ROM group, changes in kinematics were longitudinally quantified in the follow-up period by measuring the ROM achieved with the τOUT and τINT measured at baseline. This was conducted to evaluate whether immobilization mediated a significant reduction in ROM. In the stiffness group, joint kinetics were examined by measuring the differences in τOUT and τINT needed to achieve the original 80° of internal rotation and 60° of external rotation, respectively. […]
To reproducibly capture ROM and torque, passive limb rotation was performed by a stepper motor controlled with a microcontroller (UNO R3, Arduino - Torino, Italy). […] In the ROM group, pre-set programmable torque values, specific for each animal and measured at baseline (τOUT and τINT), were used as input variables in order to detect changes in rotation ROM with 0.2° resolution. […]
This study investigated the effects of recombinant human relaxin-2 on the kinetics and kinematics of the glenohumeral joint in an animal model of shoulder contracture, as described in Villa-Camacho et al., Journal of Shoulder and Elbow Surgery, 2015, 24(11): 1809-16. […] For each animal, torque was measured per degree, on the intact left shoulder as a function of rotation angle between […] and 60° of external rotation prior to any surgical intervention. […]

[6] = in vivo; cited from earlier work
[7] = system: collagen build-up in the lung induced by bleomycin; settings: cited from earlier work
human fibroblasts = settings: cited from earlier work
heart failure = settings: 30 micrograms/kg/day for 2 days, intravenous infusion; cited from earlier work
[8] = system: scleroderma (systemic sclerosis); settings: cited from earlier work

## Relaxin-2
[1]; HFLS / synoviocytes, over four weeks, versus untreated control
  antifibrotic efficacy (downregulation of collagen I expression) of released relaxin-2: significant downregulation in collagen I expression
[1]; synoviocytes, legend of FIG. 4 breaks off
  collagen I level by densitometry (reduced to): approximately 50%
[2]
  time stable at 37° C. without loss of alpha helical structure: up to 2 months
[2]; listed as relaxin-2
  time stable at 37° C. without loss of alpha helical structure: 2 months
[2]; 95° C., at least one hour
  conformation after incubation at 95° C.: maintains its folded 3D structure; also recorded: tolerant to incubation for at least one hour
[2]; w/o/w double emulsion of PLGA microparticle synthesis
  secondary (alpha helical) structure after the double emulsion process: no change; also recorded: unaffected by the double emulsion process
[3]
  histology: adhesions / hallmarks of arthrofibrosis: lacked any apparent adhesions
[4]
  TGF-β-induced fibronectin levels: decreased TGF-β-induced fibronectin levels
[5]; intravenous injection at a much greater dose
  internal ROM: similarly constricted internal ROM compared with the untreated control group
[5]; relaxin-2 as mIA (5 intraarticular injections of 2 ug/kg every other day), RMP as single injection of approximately 10 ug/kg
  internal ROM: significant increase back to healthy baseline by week 2
[5]; relaxin-2 as mIA (5 intraarticular injections of 2 ug/kg every other day), RMP as single injection of approximately 10 ug/kg, listed as relaxin-2
  internal ROM: restoration of internal ROM to baseline measurements
[5]; singular articular injection
  internal ROM: similarly constricted internal ROM compared with the untreated control group
[6]
  pharmacokinetic profile: rapid pharmacokinetic profile
[7]
  lung collagen build-up: decreased collagen build-up in the lung induced by bleomycin
Human fibroblasts
  collagen and fibronectin levels: reduction in levels of collagen types I and III and fibronectin
Heart failure
  primary endpoint of effectiveness: did not meet the trial’s primary endpoint of effectiveness
[8]; 25 micrograms/kg/day for 24 weeks, subcutaneous delivery
  primary endpoint of effectiveness: did not meet the trial’s primary endpoint of effectiveness
[8]; human, in vivo, sc
  renal adverse events: declines in creatine clearance and renal adverse events
